Experimental findings from publication PMC7869897, “Structure–functional relationship of cellular retinoic acid-binding proteins I and II interacting with natural and synthetic ligands” (Acta Crystallographica. Section D, Structural Biology, 2021) are described below.

The structures appear in SMILES notation.

Holding throughout (assay type): binding
Assay [1] deals with T1, CRABPI (Homo sapiens, UniProt P29762, L29C).
T1 construct: gene CRABP1; His-tagged, tag cleaved with thrombin
Briefly: co-crystal structure ([…] Å) and competitive fluorescence displacement of DC271.

Assay [2] deals with T2, CRABPII (Homo sapiens, UniProt P29373).
T2 construct: gene CRABP2; GST-tagged, tag cleaved with thrombin
T2 sequence (P29373 1-138): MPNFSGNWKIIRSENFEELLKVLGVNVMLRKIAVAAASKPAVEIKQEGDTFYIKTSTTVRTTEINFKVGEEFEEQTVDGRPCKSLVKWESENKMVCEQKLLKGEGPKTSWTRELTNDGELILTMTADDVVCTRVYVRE
The description is as above.

For assay [3], the target named is T2, CRABPII. As to the kind of experiment: co-crystal structure ([…] Å).
The target of assay [4] is T1, CRABPI. Briefly: crystal structure ([…] Å); co-purified fatty acid density modelled as myristic acid.
For assay [5], the target named is T2, CRABPII. Briefly: solvatochromic fluorescence probe, with and without CRABPII; displaced by DC645.
The target in assay [6] is T1, CRABPI. Briefly: fluorescent probe displaced by DC645.

T1 sequence (P29762 whole entry L29C): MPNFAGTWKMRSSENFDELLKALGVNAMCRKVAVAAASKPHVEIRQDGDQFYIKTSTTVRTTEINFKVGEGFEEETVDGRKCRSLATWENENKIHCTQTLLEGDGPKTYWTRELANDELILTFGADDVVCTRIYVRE

`CC1(C)CCC(C)(C)c2nc(C#Cc3ccc(C(=O)O)cc3)cnc21` [DC645]: the Kd at CRABPI [1] is 1940 ± 110 nM; at CRABPII [2], 250 ± 60 nM.
For `CC(C)N1CCC(C)(C)c2ccc(-c3ccc(/C=C/C(=O)O)cc3)cc21` [DC479], at CRABPII [3], the “co-crystal structure (1.80 Å)” value is recorded as “DC479 occupies the binding site fully, with its carboxylic acid head buried adjacent to the canonical binding triad”.
For `CCCCCCCCCCCCCC(=O)O` [MYR, myristic acid], the “crystal structure (1.64 Å); co-purified fatty acid density modelled as myristic” value at CRABPI [4] is given as “a conserved water molecule hydrogen-bonded to the associated ligand modelled as the 14-carbon myristic acid”.
For the compound `CC(C)N1CCC(C)(C)c2cc(C#Cc3ccc(C(=O)O)cc3)ccc21` [DC271], the “solvatochromic fluorescence probe, with and without CRABPII; displaced by DC645” value on CRABPII [5] is “DC271 presents a stark solvatochromic effect when in the presence of CRABPII owing to inclusion into the binding site”. The “fluorescent probe displaced by DC645” value on CRABPI [6] is recorded as “Competitive displacement of DC271 from CRABPI-L29C by DC645 was carried out”.
